Laboratory results from publication PMC12259270, “Sensory neuron–expressed FGF13 controls nociceptive signaling in diabetic neuropathy models” (The Journal of Clinical Investigation, 2025).
Residues, ends and D or L forms follow the SMILES beside them. *: point of attachment. Cbz = O=C(OCc1ccccc1)*; OtBu = CC(C)(C)O*

Target: T1, human Nav1.7 (Homo sapiens, UniProt Q15858)
T1 construct: expressed in transfected cells; host or cells: HEK293 stably expressing human Nav1.7
Experiment: Whole-cell patch-clamp, HEK293 cells stably expressing human Nav1.7 with GFP or FGF13-GFP
Type: cell-based
Details: for Time constant of repriming, Mean: Fig 1L, PW164; for Activation / Long-term inactivation, 2nd Pulse / Long-term inactivation, 3rd Pulse / Long-term inactivation, 4th Pulse / Peak Density / Steady state inactivation / Tau (τ): HEK293 Nav1.7
Description: Whole-cell patch clamp electrophysiology
HEK293-Nav1.7 cells, HEK293 stably expressing human Nav1.6 (HEK-Nav1.6), HEK293 stably expressing human Nav1.5 (HEK-Nav1.5), human hIPSC-derived sensory neurons (RealDRGTM from Anatomic Incorporated 1020F1-1M) and donor-derived DRG neurons were plated at low density on glass coverslips and processed for whole-cell patch clamp electrophysiology in voltage-clamp and/or current clamp mode. Whole-cell patch electrophysiological experiments were conducted following previously published studies (26). Current densities were obtained by dividing INa amplitude by membrane capacitance. Current –voltage relationships were generated by plotting current density as a function of the […]. Conductance (G Na) was calculated by the […]
where INa is the current amplitude at voltage Vm, and Erev is the Na+ reversal potential.
Activation curves were derived by plotting normalized GNa as a function of test potential and fitted using […]
Where GNa,Max is the maximum conductance, Va is the membrane potential of half-maximal activation, Em is the membrane voltage and k is the slope factor. For steady -state inactivation, normalized current amplitude (INa/INa,Max) at the test potential was plotted as a function of prepulse potential (Vm) and fitted using the […]
Where Vh is the potential of half-maximal inactivation, E m is the membrane voltage, and k is the slope factor.
Transient INa inactivation decay was estimated with the standard exponential equation. Inactivation time constant (tau, τ) was fitted with the following equation: […]
where I(t) is the amplitude of the current at time t and Iss is the steady-state current during a single voltage-step.
The goodness of fitting was determined by correlation coefficient (R), and the cutoff of R was set at 0.85. To observe effects on long-term inactivation (LTI), a four-step protocol was employed during which cells were subjected to four 0 mV, 20 ms depolarization pulses separated by −90 mV, 40 ms recovery intervals. To control for various cell sizes, the current densities were calculated by dividing INa peak current amplitude/membrane capacitance (Cm). To represent the fraction of channels entering into LTI, the peak INa observed during depolarization cycles 2-4 was normalized to the peak INa observed during depolarization cycle 1 (INa/INa,Cycle 1) and plotted as a function of the depolarization cycle.
The cumulative (frequency-dependent) use-dependency was determined by applying 20 pulses with a depolarization to −10 mV (50 ms duration) and 50 ms recovery intervals with a train of 20 pulses at 10 Hz from a holding potential at -70 mV. The current pulses were normalized to the first reco rded pulse and the currents at the 2nd to 20th pulses were compared. The same train was used to record use-dependency at various frequencies […]
The rate of recovery from inactivation was recorded at -80 mV with a standard repriming voltage protocol.
The cells were prepulsed to -20 mV for 20 ms to inactivate all currents, then driven back to the recovery potential (Vrec) for increasing recovery durations before the test pulse to 0 mV. The maximum pulse rate was 0.5 Hz. The […]
follows previous publications (16). The time constants were estimated from single exponential decay to time courses measured at recovery potentials ranging from -140 to -60 mV with the protocol as mentioned above.
Electrophysiological Recordings
HEK293 cells: Electrophysiological recordings in HEK293 stably expressing Nav1.7 (HEK-Nav1.7), Nav1.5 (HEK-Nav1.5) or Nav1.6 (HEK-Nav1.6) were performed at room temperature using a MultiClamp 700B or an Axopatch 200B amplifier (Molecular Devices) after incubating coverslips for 60 minutes either with 0.1% DMSO or 50 μM PW164 or ZL192 in the extracellular solution. The composition of recording solutions consisted of the […]
following salts: extracellular (mM): 140 NaCl, 3 KCl, 1 MgCl2, 1 CaCl2, 10 HEPES, 10 glucose, pH 7.3; […]
intracellular (mM): 130 CH3O3 SCs, 1 EGTA, 10 NaCl, 10 HEPES, pH 7.3. […]

T1 sequence (Q92913 1-192 partner limits assumed): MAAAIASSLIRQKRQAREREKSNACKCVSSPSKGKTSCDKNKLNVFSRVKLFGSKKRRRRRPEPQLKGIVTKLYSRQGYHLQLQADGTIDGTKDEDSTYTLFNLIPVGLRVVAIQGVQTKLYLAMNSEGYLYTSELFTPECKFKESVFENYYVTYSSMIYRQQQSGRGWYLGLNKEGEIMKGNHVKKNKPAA
T1 sequence (Q15858 1-1977 isoform Q15858-3): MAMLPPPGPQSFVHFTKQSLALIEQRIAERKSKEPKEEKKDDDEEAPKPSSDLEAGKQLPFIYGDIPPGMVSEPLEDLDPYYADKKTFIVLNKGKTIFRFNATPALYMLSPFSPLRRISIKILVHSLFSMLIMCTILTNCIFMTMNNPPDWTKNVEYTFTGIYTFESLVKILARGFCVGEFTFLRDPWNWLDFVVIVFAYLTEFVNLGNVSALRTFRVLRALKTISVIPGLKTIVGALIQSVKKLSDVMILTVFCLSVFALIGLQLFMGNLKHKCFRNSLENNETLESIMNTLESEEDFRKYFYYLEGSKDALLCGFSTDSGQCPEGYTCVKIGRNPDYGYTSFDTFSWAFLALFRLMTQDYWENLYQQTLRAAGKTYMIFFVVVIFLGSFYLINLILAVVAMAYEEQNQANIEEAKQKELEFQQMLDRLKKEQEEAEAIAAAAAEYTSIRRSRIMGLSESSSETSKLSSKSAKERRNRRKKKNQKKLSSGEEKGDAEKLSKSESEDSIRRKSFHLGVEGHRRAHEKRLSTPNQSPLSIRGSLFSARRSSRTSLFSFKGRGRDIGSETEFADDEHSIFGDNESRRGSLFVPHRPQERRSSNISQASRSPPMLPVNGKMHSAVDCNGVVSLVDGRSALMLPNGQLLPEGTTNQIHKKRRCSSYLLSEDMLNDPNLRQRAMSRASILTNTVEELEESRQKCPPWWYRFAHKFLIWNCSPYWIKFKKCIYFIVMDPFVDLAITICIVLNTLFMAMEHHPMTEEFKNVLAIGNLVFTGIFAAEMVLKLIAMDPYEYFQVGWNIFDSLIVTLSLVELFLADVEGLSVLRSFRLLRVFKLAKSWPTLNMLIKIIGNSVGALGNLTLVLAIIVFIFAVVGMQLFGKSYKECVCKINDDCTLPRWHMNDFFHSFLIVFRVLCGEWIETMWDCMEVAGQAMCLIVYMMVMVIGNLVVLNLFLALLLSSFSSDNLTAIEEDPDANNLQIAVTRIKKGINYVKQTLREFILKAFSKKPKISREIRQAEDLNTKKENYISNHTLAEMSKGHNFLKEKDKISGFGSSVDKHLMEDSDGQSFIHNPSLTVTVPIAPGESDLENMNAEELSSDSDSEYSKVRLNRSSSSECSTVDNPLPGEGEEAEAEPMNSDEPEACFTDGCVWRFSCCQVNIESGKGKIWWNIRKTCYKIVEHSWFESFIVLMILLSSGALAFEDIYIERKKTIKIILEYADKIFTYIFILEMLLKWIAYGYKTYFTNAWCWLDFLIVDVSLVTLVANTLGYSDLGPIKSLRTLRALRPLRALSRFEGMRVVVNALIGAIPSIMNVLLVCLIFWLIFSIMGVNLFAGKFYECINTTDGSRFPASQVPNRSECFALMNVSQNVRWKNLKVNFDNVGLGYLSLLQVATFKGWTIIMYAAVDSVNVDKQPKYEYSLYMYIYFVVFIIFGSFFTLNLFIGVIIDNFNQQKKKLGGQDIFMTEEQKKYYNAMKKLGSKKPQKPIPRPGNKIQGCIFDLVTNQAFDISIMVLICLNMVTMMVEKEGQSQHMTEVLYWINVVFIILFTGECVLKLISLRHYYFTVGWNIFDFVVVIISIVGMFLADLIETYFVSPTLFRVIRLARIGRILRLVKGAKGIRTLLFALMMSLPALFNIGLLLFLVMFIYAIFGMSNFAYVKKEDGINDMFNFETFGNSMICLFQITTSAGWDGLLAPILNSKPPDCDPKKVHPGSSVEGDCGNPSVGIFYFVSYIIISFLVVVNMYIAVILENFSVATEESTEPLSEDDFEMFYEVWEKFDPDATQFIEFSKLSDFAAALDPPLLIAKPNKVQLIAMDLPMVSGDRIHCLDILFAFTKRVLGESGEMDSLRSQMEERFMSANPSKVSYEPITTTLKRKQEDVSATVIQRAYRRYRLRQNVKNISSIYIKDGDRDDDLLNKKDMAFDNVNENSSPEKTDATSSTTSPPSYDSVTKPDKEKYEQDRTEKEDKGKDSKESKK

`COC(=O)[C@@H](NC(=O)[C@H](CCC(=O)OC(C)(C)C)NC(=O)[C@H](CC(C)C)NC(=O)[C@@H]1CCCN1C(=O)OCc1ccccc1)C(C)C` [PW164] (Cbz-PLE(OtBu)V-OMe) was tested, and the “Time constant of repriming, Mean” value (Nav1.7 + FGF13-GFP, recovery potential -100) was 42.57 ms, the “Time constant of repriming, Mean” value (Nav1.7 + FGF13-GFP, recovery potential -120) was 33.57 ms and the “Time constant of repriming, Mean” value (Nav1.7 + FGF13-GFP, recovery potential -140) was 16.96 ms. For the same molecule, the “Time constant of repriming, Mean” value (Nav1.7 + GFP, recovery potential -60) was 57.89 ms, the “Time constant of repriming, Mean” value (Nav1.7 + GFP, recovery potential -70) was 65.42 ms and the “Time constant of repriming, Mean” value (Nav1.7 + GFP, recovery potential -80) was 71.67 ms. The “Time constant of repriming, Mean” value (Nav1.7 + GFP, recovery potential -90) was 61.78 ms, the “Time constant of repriming, Mean” value (Nav1.7 + GFP, recovery potential -100) was 47.69 ms and the “Time constant of repriming, Mean” value (Nav1.7 + GFP, recovery potential -120) was 34.63 ms. The “Time constant of repriming, Mean” value (Nav1.7 + GFP, recovery potential -140) was 16.6 ms, the Activation (FGF13-GFP + PW164 50 μM) was −19.7 ± 0.9 mV and the “Long-term inactivation, 2nd Pulse” value (FGF13-GFP + PW164 50 μM) was −69.72 ± 5.21 % maximal Na+ current. The “Long-term inactivation, 3rd Pulse” value (FGF13-GFP + PW164 50 μM) was −60.33 ± 5.60 % maximal Na+ current, the “Long-term inactivation, 4th Pulse” value (FGF13-GFP + PW164 50 μM) was −59.34 ± 4.68 % maximal Na+ current and the Peak Density (FGF13-GFP + PW164 50 μM) was −26.7 ± 3.6 pA/pF. The Steady state inactivation (FGF13-GFP + PW164 50 μM) was −64.7 ± 2.1 mV, the “Tau (τ)” value (FGF13-GFP + PW164 50 μM) was 0.80 ± 0.03 ms and the Activation (FGF13A GFP (FGF13-1a) + PW164) was −26.91 ± 1.25 mV. For the same molecule, the Peak Density (FGF13A GFP (FGF13-1a) + PW164) was −109.1 ± 11.7 pA/pF, the Steady state inactivation (FGF13A GFP (FGF13-1a) + PW164) was −63.11 ± 2.14 mV and the “Tau (τ)” value (FGF13A GFP (FGF13-1a) + PW164) was 1.41 ± 0.06 ms. For the same molecule, the “Long-term inactivation, 2nd Pulse” value (FGF13A-GFP (FGF13-1a) + PW164) was −47.28 ± 4.68 % maximal Na+ current, the “Long-term inactivation, 3rd Pulse” value (FGF13A-GFP (FGF13-1a) + PW164) was −35.27 ± 3.04 % maximal Na+ current and the “Long-term inactivation, 4th Pulse” value (FGF13A-GFP (FGF13-1a) + PW164) was −29.22 ± 4.16 % maximal Na+ current. For the same molecule, the Activation (GFP + PW164 50 μM) was −26.1 ± 0.4 mV, the “Long-term inactivation, 2nd Pulse” value (GFP + PW164 50 μM) was −67.94 ± 3.77 % maximal Na+ current and the “Long-term inactivation, 3rd Pulse” value (GFP + PW164 50 μM) was −62.35 ± 5.35 % maximal Na+ current. For the same molecule, the “Long-term inactivation, 4th Pulse” value (GFP + PW164 50 μM) was −60.93 ± 3.90 % maximal Na+ current, the Peak Density (GFP + PW164 50 μM) was −69.2 ± 7.5 pA/pF and the Steady state inactivation (GFP + PW164 50 μM) was −83.5 ± 1.7 mV. The “Tau (τ)” value (GFP + PW164 50 μM) was 1.48 ± 0.25 ms, the IC50 (HEK-Nav1.7 coexpressing FGF13-GFP, Fig 1F, read-out: IC50, reversal of FGF13-induced increase in INa density) was 6.74 ± 0.5 µM and the “Time constant (ms), Mean (Figure 4J)” value (Nav1.7 + FGF13-GFP, at -60, N 5) was 36.71 ms. For the same molecule, the “Time constant (ms), Mean (Figure 4J)” value (Nav1.7 + FGF13-GFP, at -70, N 5) was 42.79 ms, the “Time constant (ms), Mean (Figure 4J)” value (Nav1.7 + FGF13-GFP, at -80, N 5) was 44.71 ms and the “Time constant (ms), Mean (Figure 4J)” value (Nav1.7 + FGF13-GFP, at -90, N 5) was 37.77 ms. For the same molecule, the “Time constant (ms), Mean (Figure 4J)” value (Nav1.7 + FGF13-GFP, at -100, N 5) was 28.49 ms, the “Time constant (ms), Mean (Figure 4J)” value (Nav1.7 + FGF13-GFP, at -120, N 5) was 23.55 ms and the “Time constant (ms), Mean (Figure 4J)” value (Nav1.7 + FGF13-GFP, at -140, N 5) was 14.96 ms. For the same molecule, the “Time constant (ms), Mean (Figure 4J)” value (Nav1.7 + GFP, at -60, N 6) was 50.23 ms, the “Time constant (ms), Mean (Figure 4J)” value (Nav1.7 + GFP, at -70, N 6) was 52.23 ms and the “Time constant (ms), Mean (Figure 4J)” value (Nav1.7 + GFP, at -80, N 6) was 56.52 ms. The “Time constant (ms), Mean (Figure 4J)” value (Nav1.7 + GFP, at -90, N 6) was 45.93 ms, the “Time constant (ms), Mean (Figure 4J)” value (Nav1.7 + GFP, at -100, N 6) was 35.06 ms and the “Time constant (ms), Mean (Figure 4J)” value (Nav1.7 + GFP, at -120, N 6) was 27.11 ms. For the same molecule, the “Time constant (ms), Mean (Figure 4J)” value (Nav1.7 + GFP, at -140, N 6) was 15.6 ms and the “activity on Nav1.7 currents” value (Nav1.7 cells coexpressing FGF13-1a-GFP (FGF13S)) was “inactive”.
